Experimental data reported in patent US12653862B2, “Anti-senescence compounds and uses thereof” (CLEARA BIOTECH B.V., priority 2020, dated 2026).

Legend:
CRC29 lung metastases = experiment: TUNEL assay on CRC29 lung metastases; format: in vivo, mice; conditions: vs PBS
Method: (§1) Mouse experiments were performed after approval from the Dutch animal ethics committee. For these experiments male NOD.Cg-Prkdc^scid Il2rg^tmlWjl/SzJ/J mice (Charles River) were employed. Human CRC29 colorectal cancer organoids containing firefly luciferase were implanted into the caecum, resulting in the formation of a primary tumor at this site. The implantation was performed under ketamine and dexmedetomidine anaesthesia. In addition, the animals received carpofen 30 min before surgery and the day after. 14 days after transplantation, the mice were sedated using isoflurane and imaged under the BioSpace Imager. Subsequently, The animals were treated with either PBS or with ′5-Fluorouracil (5-FU) at a dose of 50 mg/kg via i.p. injection. The first dose of CL04183 (2.5 mg/kg) was administered via i.v. injection 1 week after 5-FU treatment and this treatment was repeated 2 and 4 days later. 4 weeks after transplantation, the mice were imaged again to determine treatment effect and subsequently sacrificed. All organs were harvested and imaged under the BioSpace Imager again and the luciferase signal was quantified using the M3 vision software.
A TUNEL assay was performed on lung metastases to determine apoptosis induction after treatment. […] Images were acquired using a LSM880 confocal microscope (Zeiss) and the percentage of TUNEL-positive cells was analysed using FIJI.

[1] = tested on: CRC29 colorectal cancer organoid line; experiment: CRC29 metastasis in liver and lung, human nucleoli staining; format: in vivo, mice; conditions: 3 doses, vs PBS
Method: as §1
Liver and lung paraffin sections were rehydrated in decreasing concentrations of ethanol before being washed in TBS and boiled for 20 minutes in 10 mM sodium citrate buffer (PH6) for antigen unmasking. […]

[2] = tested on: NRAS mutated and BRAF mutated melanoma; experiment: Efficacy against melanoma; format: cell-based
[3] = tested on: triple negative breast cancer lines; experiment: MTS cell viability in human breast cancer cell lines; format: cell-based; conditions: increasing concentrations, 2 days
[4] = Grey hair in naturally aged mice; format: in vivo; conditions: 24-month old C57BL/6J mice, 3 doses i.v., 4 weeks after first treatment, vs PBS
Source text: 24-month old C57BL/6J mice were photographed before receiving 3 doses of either PBS or CL04183 (SEQ ID NO: 55) through i.v. injection. 4 weeks after the first treatment the mice were photographed again.

[5] = tested on: CRC29 colorectal cancer organoid line; experiment: Bioluminescence of luciferase-expressing CRC29 transplanted in the caecum of immunodeficient mice; format: in vivo; conditions: 3 doses, imaged two days after last dose, vs PBS
Method: as §1

[6] = Peptide stability in solution; format: physicochemical
Method: Both peptides were dissolved in H2O and kept at room temperature. The peptide concentration was determined for the indicated time points.

[7] = tested on: WT colon and tumor progression (TPO) organoids; experiment: Cell viability of WT colon and tumor progression (TPO) organoids; format: cell-based; conditions: increasing concentrations, measured 5 days later
Method: (§2) Organoids were grown at 37° C. and 5% CO2 in a humidified incubator. All organoids were cultured in matrigel (Corning) droplets in advanced DMEM/F12 (Lonza) supplemented with 1% glutamax, 1% Penicillin/Streptomycin, 1% (10 mM) HEPES, 10% Noggin conditioned medium, 2% B-27 (50×; (Thermo/Life Technologies), N-acetylcysteine ((Sigma-Aldrich, 1.25 mM)), A83-01 (Tocris, 500 nM) and SB203580 (Invitrogen/Life Technologies, 3 μM). To perform viability and apoptosis assays, the organoids were passaged through resuspension in ice-cold medium, followed by centrifugation in 15 ml tubes at 4° C. The resulting pellet was trypsinized for 5 minutes at 37° C. to obtain single cells and subsequently washed twice with advanced DMEM/F12 media. These cells were then resuspended in Matrigel and plated in 96-well plates in 5 ul droplets. 100 ul fresh medium was added to the wells 15 minutes later. Peptide and chemotherapy treatment was added to the organoids 2 days after plating.

RPE1 cells = experiment: Senescent vs ctrl human RPE1 cells; format: cell-based; conditions: vs FOXO4-DRI (CL03001) within one experiment
Method: Human IMR90, WI38 and RPE cells were grown in Dulbecco's Modified Eagle's Medium (DMEM; Lonza) containing 10% FCS and 1% pen/strep at 37° C. with 3.0% 02 and 5.0% CO2. To induce senescence, cells were irradiated with 10Gy ionizing radiation (Gammacell 1000) and were left for a minimum of 10 days to become senescent.
To perform viability and apoptosis assays, cells were split into 96-well plates and treated with peptides 2 days later. Non-senescent and cancer cells were plated 1500 cells/well, while senescent cells were plated at 8.000 cells/well.

[8] = tested on: CRC29 colorectal cancer organoids; experiment: Apoptosis and viability in patient-derived colorectal cancer organoid line CRC29; format: cell-based, Human
Method: as §2
A Live/dead assay was performed on both larger organoids 3 days after peptide and/or chemotherapy treatment, or on organoids that were treated as single cells and allowed to grow out for 2 weeks before the assay was performed. […] The organoids were then imaged on a Zeiss Cell Observer microscope and the signal was quantified using FIJI. […]

## AKIEAAILDAFSQNWRKRRRRQRRKKRG [CL04183]
CRC29 lung metastases
  apoptosis in metastatic cancer cells (TUNEL positive cancer cells): induces apoptosis in metastatic cancer cells in vivo
[1]
  colorectal cancer metastasis in liver and lung: reduces colorectal cancer metastasis in liver and lung
[2]
  efficacy against melanoma: efficacy against NRAS mutated and BRAF mutated melanoma
[3]
  sensitivity of breast cancer cell lines (cell viability, MTS): correlating with CL04183 (SEQ ID NO: 55) sensitivity
[4]
  grey hair: reduces grey hair
[5]
  luciferase-expressing colorectal cancer cells (bioluminescence): reduces luciferase-expressing colorectal cancer cells in vivo
[6]
  stability in solution: superior stability
[7]
  cell viability, sensitivity of organoids with colorectal cancer associated mutations: sensitizes to FOXO4-based peptides, dependent on p53
RPE1 cells
  selectivity and potency in senescent vs ctrl cells: superior selectivity and potency
[8]
  apoptosis induction: potently induces apoptosis
